Data set [1] can be described thus: toxicity of DSG to C127-ΔF508-low cells. In kind it is cell-based, murine. The note with it: mouse, read-out: concentrations toxic to the cells. The text has this:
C127-ΔF508-low (mouse mammary tumor) is a recombinant cell line stably transfected with the cDNA encoding the mutant ΔF508-CFTR (Cheng et al. (1995), supra.; Marshall et al. (1994), J. Biol. Chem. 269: 2987-2995). […] C127-mock is a cell line that has been stably transfected with the backbone of the expression vector used to generate C127-ΔF508-low (Cheng et al. (1995), supra.). LLCPK1 -ΔF508 (pig kidney epithelial) is a recombinant cell line stably expressing low levels of the mutant ΔF508-CFTR protein (Marshall et al., supra.). The details of the generation, characterization and routine propagation of these cell lines has been described (Cheng et al. (1995), supra.; Marshall et al., supra.).
Cells were treated with up to 100 μg/ml of DSG for up to 72 h. Concentrations of DSG >50 μg/ml were toxic to most of the cell types tested. Since DSG is modified by polyamine oxidase present in fetal bovine serum (Tepper et al., supra.), cells were routinely replenished with fresh medium containing DSG and aminoguanidine every 24 h. As a control in some experiments, C127 cells were also treated with 5 mM sodium butyrate for 24 h. to enhance expression of ΔF508-CFTR (Cheng et al. (1995), supra.). As another control, cells were cultured at 23° C. for 24 to 48 h. to facilitate folding of the mutant ΔF508-CFTR at the ER.

In data set [2] the test system is ΔF508-CFTR (LLCPK1-ΔF508 cells). The experiment in a line: SPQ assay, cAMP-stimulated Cl- channel activity, LLCPK1-ΔF508 cells. In kind it is cell-based. On the procedure:
The cAMP-dependent CFTR Cl^- channel activity was assessed using the halide-sensitive fluorophore 6-methoxy-N-(3-sulfopropyl)-quinolinium (SPQ) essentially as described previously (Cheng et al., (1995), supra.; Marshall et al., supra.). Briefly, the cells were treated with different amounts of DSG for the times specified. At the end of the treatment period, the cells were loaded with SPQ by hypotonic shock for 4 min at room temperature. SPQ fluorescence initially was quenched by incubating the cells for up to 30 min in a NaI buffer (135 mM NaI, 2.4 mM K2 HPO4, 0.6 mM KH2 PO4, 1 mM MgSO4, 1 mM CaSO4, 10 mM dextrose, and 10 mM N-2 hydroxyethylpiperazine-N'2-ethanesulfonic acid, pH 7.4). After measuring the baseline fluorescence (Fo) for 2 min., the NaI solution was replaced with one containing 135 mM NaNO3, and fluorescence was measured for another 16 min. […]
An increase in halide permeability is reflected by a more rapid increase in SPQ fluorescence. […] Differences in absolute levels reflect quantitative differences between groups in SPQ loading, size of cells, or number of cells studied. The data are presented as means± SE of fluorescence at time t (Ft) minus the baseline fluorescence (Fo, the average fluorescence measured in the presence of I^- for 2 min. before ion substitution) and are representative of results obtained under each condition. […]

The subject of data set [3] is ΔF508-CFTR (JME/CF15 cells). The experiment in a line: SPQ assay, cAMP-stimulated Cl- channel activity, JME/CF15 cells. In kind it is cell-based, human. The protocol: The cAMP-dependent CFTR Cl^- channel activity was assessed using the halide-sensitive fluorophore 6-methoxy-N-(3-sulfopropyl)-quinolinium (SPQ) essentially as described previously (Cheng et al., (1995), supra.; Marshall et al., supra.). Briefly, the cells were treated with different amounts of DSG for the times specified. At the end of the treatment period, the cells were loaded with SPQ by hypotonic shock for 4 min at room temperature. SPQ fluorescence initially was quenched by incubating the cells for up to 30 min in a NaI buffer (135 mM NaI, 2.4 mM K2 HPO4, 0.6 mM KH2 PO4, 1 mM MgSO4, 1 mM CaSO4, 10 mM dextrose, and 10 mM N-2 hydroxyethylpiperazine-N'2-ethanesulfonic acid, pH 7.4). After measuring the baseline fluorescence (Fo) for 2 min., the NaI solution was replaced with one containing 135 mM NaNO3, and fluorescence was measured for another 16 min. Forskolin (20 μM) and 3-isobutyl-1-methyl-xanthine (IBMX) (100 μM) were added 5 min after the anion substitution to increase intracellular levels of cAMP.
An increase in halide permeability is reflected by a more rapid increase in SPQ fluorescence. It is the rate of change rather than the absolute change in signal that is the important variable in evaluating anion permeability. Differences in absolute levels reflect quantitative differences between groups in SPQ loading, size of cells, or number of cells studied. The data are presented as means± SE of fluorescence at time t (Ft) minus the baseline fluorescence (Fo, the average fluorescence measured in the presence of I^- for 2 min. before ion substitution) and are representative of results obtained under each condition.
For each experiment, between 50 to 100 cells were examined on a given day and studies under each condition were repeated on at least two days. […] There was a broad spectrum in the rate of change in SPQ fluorescence observed with responsive cells. Normally, cells were scored as responsive if they generated a minimum of a […] change in the rate of increase in SPQ fluorescence following stimulation with cAMP agonists. […]

For a further data set, the target named is hsp90. The note with it: read-out: kds, DSG-hsp complexes; cited from earlier work.

Entries after “also recorded” stand apart in the source; their conditions may differ.

As for `N=C(N)NCCCCCCC(=O)NC(O)C(=O)NCCCCNCCCN` (centres unmarked) [DSG, deoxyspergualin], the MCC at 72 h in data set [1] was above 50 µg/mL. Further, the “cAMP-stimulated Cl- channel activity, in words” value is “marginal; also recorded: Data similar to those described for C127-ΔF508-low cells” in data set [2] and “more robust than that attained when cells were cultured at low temperature; also recorded: a greater number of responsive cells was observed when 10 μg/ml of DSG was used instead of 5 μg/ml; also recorded: no further significant increment in response was noted at concentrations higher than 10 μg/ml; also recorded: increased cAMP-mediated chloride channel activity; also recorded: comparable to that observed when these cells were cultured at a reduced temperature; also recorded: displayed cAMP-responsive Cl^- channel activity” in data set [3] (72 h). For the same molecule, in data set [3] (FIG. 4), the “percentage of mature CFTR produced from CFTRΔF508 upon exposure to reduced temperatures” value is given as “increases upon exposure to reduced temperatures”. In addition, the Kd at hsp90 was 4 to 5 µM.

Source of the values: patent publication US5985824A, “Methods and compositions for treating cystic fibrosis” (priority 1997, dated 1999).
